Measurements from ChEMBL document CHEMBL1152282, “SAR profiles of spirocyclic nicotinamide derived selective HDAC1/HDAC2 inhibitors (SHI-1:2)” (Bioorg Med Chem Lett, 2008).
Converted amounts (≈) assume the structure as drawn.

Tests used:
[1] = Half life in rat at 2.0 mg/kg, iv; format: ADME, organism-based; set-up: dose 2 mg/kg, route intravenous; conditions: in vivo
[2] = Half life in dog at 0.90 mg/kg, iv; format: ADME, organism-based, Canis lupus familiaris; set-up: dose 0.9 mg/kg, route intravenous; conditions: in vivo, 0.9 mg/kg
[3] = Oral bioavailability in rat at 4.0 mg/kg; format: ADME, organism-based; conditions: in vivo
[4] = Plasma clearance in dog at 0.90 mg/kg, iv; format: ADME, organism-based, Canis lupus familiaris; set-up: dose 0.9 mg/kg, route intravenous; conditions: 0.9 mg/kg
[5] = AUC in mouse at 150 mg/kg, po; format: ADME, organism-based; set-up: dose 150 mg/kg, route oral; conditions: plasma
[6] = Cmax in mouse at 150 mg/kg, po; format: ADME, organism-based; set-up: dose 150 mg/kg, route oral; conditions: in vivo
[7] = Half life in dog at 0.50 mg/kg, iv; format: ADME, organism-based, Canis lupus familiaris; set-up: dose 0.5 mg/kg, route intravenous; conditions: in vivo, 0.5 mg/kg
[8] = Plasma clearance in dog at 0.50 mg/kg, iv; format: ADME, organism-based, Canis lupus familiaris; set-up: dose 0.5 mg/kg, route intravenous; conditions: 0.5 mg/kg
[9] = Volume of distribution at steady state in dog at 0.50 mg/kg, iv; format: ADME, organism-based, Canis lupus familiaris; set-up: dose 0.5 mg/kg, route intravenous; conditions: in vivo, 0.5 mg/kg, read-out: Vdss
[10] = Volume of distribution at steady state in rat at 2.0 mg/kg, iv; format: ADME, organism-based; set-up: dose 2 mg/kg, route intravenous; conditions: in vivo, read-out: Vdss
[11] = Plasma clearance in rat at 2.0 mg/kg, iv; format: ADME, organism-based; set-up: dose 2 mg/kg, route intravenous
[12] = Oral bioavailability in dog at 1.0 mg/kg; format: ADME, organism-based, Canis lupus familiaris; conditions: in vivo
[13] = Plasma concentration in human HCT116 cells xenografted CD1 mouse at 15 mg/kg, ip after 6 hrs; format: ADME, organism-based, HCT-116; set-up: dose 15 mg/kg, route intraperitoneal
[14] = Solubility of the compound; format: physicochemical
[15] = Plasma concentration in human HCT116 cells xenografted CD1 mouse at 15 mg/kg, ip after 72 hrs; format: ADME, organism-based, HCT-116; set-up: dose 15 mg/kg, route intraperitoneal
[16] = Plasma concentration in human HCT116 cells xenografted CD1 mouse at 15 mg/kg, ip after 24 hrs; format: ADME, organism-based, HCT-116; set-up: dose 15 mg/kg, route intraperitoneal
[17] = Plasma concentration in human HCT116 cells xenografted CD1 mouse at 15 mg/kg, ip after 48 hrs; format: ADME, organism-based, HCT-116; set-up: dose 15 mg/kg, route intraperitoneal
Canis familiaris [18] = assay: Plasma concentration in CV dog at 3 mg/kg, iv; format: ADME, organism-based, Canis lupus familiaris; set-up: dose 3 mg/kg, route intravenous; conditions: in vivo
Canis familiaris [19] = assay: Plasma concentration in CV dog at 10 mg/kg, iv; format: ADME, organism-based, Canis lupus familiaris; set-up: dose 10 mg/kg, route intravenous; conditions: in vivo
[20] = Plasma concentration in human HCT116 cells xenografted CD1 mouse at 300 mg/kg, po after 24 hrs; format: ADME, organism-based, HCT-116; set-up: dose 300 mg/kg, route oral
[21] = Plasma concentration in human HCT116 cells xenografted CD1 mouse at 150 mg/kg, po after 6 hrs; format: ADME, organism-based, HCT-116; set-up: dose 150 mg/kg, route oral
[22] = Plasma concentration in human HCT116 cells xenografted CD1 mouse at 300 mg/kg, po after 6 hrs; format: ADME, organism-based, HCT-116; set-up: dose 300 mg/kg, route oral
[23] = Plasma concentration in human HCT116 cells xenografted CD1 mouse at 150 mg/kg, po after 24 hrs; format: ADME, organism-based, HCT-116; set-up: dose 150 mg/kg, route oral
[24] = Distribution coefficient, log D of the compound; format: physicochemical; conditions: octanol/water

| SMILES | half-life [1] [h] | bioavailability [3] [%] | AUC [5] [µM·h] | Cmax [6] [µM] | half-life [7] [h] | clearance [8] [mL/min/kg] | Vd [9] [L/kg] | Vd [10] [L/kg] | clearance [11] [mL/min/kg] | bioavailability [12] [%] | further results |
| --- | --- | --- | --- | --- | --- | --- | --- | --- | --- | --- | --- |
| C[C@H]1CN(c2ccc(C(=O)Nc3ccccc3N)cn2)CCN1C(=O)OCc1ccccc1 | 0.93 | 37 | – | – | – | – | – | – | – | – | half-life [2]: 5.6 h; clearance [4]: 7.4 mL/min/kg |
| Nc1ccc(-c2cccs2)cc1NC(=O)c1ccc(N2CCC3(CCNC3=O)CC2)nc1 | – | – | 88 | 34 | – | – | – | – | – | – | – |
| Nc1ccc(-c2cccs2)cc1NC(=O)c1ccc(N2CCC3(CC2)CNC(=O)N3)nc1 | – | – | 10 | 2 | – | – | – | – | – | – | – |
| Nc1ccc(-c2cccs2)cc1NC(=O)c1ccc(N2CCC3(CC2)COC(=O)N3)nc1 | 2.6 | 13 | 14 | 6 | 6.8 | 9.8 | 2.3 | 0.47 | 7.4 | 18 | – |
| Nc1ccc(-c2cccs2)cc1NC(=O)c1ccc(N2CCC3(CCNC3)CC2)nc1 | 6.2 | 23 | – | – | 6.7 | 5.9 | 3.3 | 8.6 | 31 | 100 | concentration at 6 h [13]: 3.4 µM; solubility [14]: 186 µM (≈ 80.6 µg/mL); concentration at 72 h [15]: 0.03 µM; concentration at 24 h [16]: 0.32 µM; concentration at 48 h [17]: 0.05 µM; concentration (Canis familiaris [18]): 6 µM; concentration (Canis familiaris [19]): 30 µM; concentration at 24 h [20]: 0.78 µM; concentration at 6 h [21]: 11 µM; concentration at 6 h [22]: 21 µM; concentration at 24 h [23]: 0.22 µM; logD [24]: 1.45 |
